{"source": "patent US8093288B2", "about": "“Genipin derivatives and uses thereof” (Beth Israel Deaconess Medical Center, priority 2003, dated 2012)", "assay_type_in_all_cases": "cell-based", "key": {"[1]": {"system": "thymocytes that are deficient in UCP2", "assay": "Proton leak in thymocytes deficient in UCP2", "source_text": "(§1) It has been shown that addition of high levels of superoxide to isolated mitochondrial stimulates proton leak if UCP1, UCP2 or UCP3 (collectively “UCPs”) are present."}, "[2]": {"system": "UCP2 deficient islets", "assay": "ATP levels and insulin secretion in UCP2 deficient islets", "source_text": "as §1"}, "[3]": {"system": "isolated thymocytes", "assay": "Proton leak in isolated thymocytes", "source_text": "as §1"}, "[4]": {"system": "isolated islets", "assay": "ATP levels and insulin secretion in isolated islets", "source_text": "as §1"}, "[5]": {"system": "pancreatic islets from wildtype mice", "assay": "Insulin secretion in isolated pancreatic islets from wildtype mice", "settings": "5.5 mM glucose; 5 μM D1; 37° C. for 60 min; WT islets; FIG. 11C", "procedure": "As used or herein, pancreatic islets from wildtype and UCP2 knockout mice were isolated according to a method used for rats (Cawthorn and Chan, Mol. Cell. Endocrinol. 1991, 75:197-204, the entire teachings of which are incorporated herein by reference), except that the total exposure to type XI collagenase (Worthington Biochemical Co., NJ) was 30 min. and the Ficoll gradient was altered to layers of 25%, 23%, 21%, and 11%. Islets were harvested from the 11%-21% interface.\nIslets were cultured in RPMI medium containing 11.0 mM glucose and supplemented with 1% penicillin-streptomycin. 7.5% fetal bovine serum (all from Gibco/BRL, Burlington, ON), and 10 mM Hepes (Sigma). After culturing for 20-24 hr, the islets were transferred to microcentrifuge tubes, pelleted (800 g for 5 min), and the medium aspirated and replaced with 1.0 mL DME medium containing 1% gelatin and 5.5 mM glucose with no genipin (control), 50 nM genipin, 0.5 μM genipin, and 5 μM genipin. For insulin secretion studies, the three islets were incubated per tube. After incubation at 37° C. for 60 min., the islets were centrifuged. The supernatant was collected and stored at −80° C., and then later assayed for insulin using Rat Insulin ELISA Kit (Cat. No. INSKR020, Crystal Chem., Inc., Chicago, Ill.).\nFIGS. 11B and 11C show their effects on insulin secretion. Pancreatic islets were isolated from WT or UCP2 knockout (KO) mice. […]"}}}
{"compound": "O=C(O)c1ccc(/C2=C3\\C=CC(=N3)/C(c3ccc(C(=O)O)cc3)=c3/cc/c4[n]3[Mn]([Cl])[n]3c2ccc3/C(c2ccc(C(=O)O)cc2)=C2/C=CC(=N2)\\C=4c2ccc(C(=O)O)cc2)cc1", "note": "[MnTBAP]", "values": [{"measurement": "proton leak", "setting": "[1]", "value": "not present"}, {"measurement": "ATP levels and insulin secretion", "setting": "[2]", "value": "absent"}, {"measurement": "proton leak", "setting": "[3]", "value": "decreases proton leak"}, {"measurement": "ATP levels", "setting": "[4]", "value": "increased ATP levels"}, {"measurement": "insulin secretion", "setting": "[4]", "value": "increased insulin secretion"}]}
{"compound": "COC(=O)C1=CO[C@@H]2OC[C@@]3(O)[C@@H]2[C@@H]1C[C@H]3Cl", "note": "[compound 55]", "values": [{"measurement": "insulin secretion", "setting": "[5]", "value": "increases insulin secretion in WT islets"}]}
